Values joined by “and” are separate entries in the source; they are usually repeats but may differ in a detail not shown here. Equal entries are not always repeated. Where two headings read alike, the source gives them in different places.
Assays:
[1] = test system: LPS-induced acute lung injury; set-up: method as in earlier work; conditions: rat model of LPS-induced acute lung injury; cited from earlier work
[2] = test system: RAW 264.7 macrophage cells; set-up: method as in earlier work; conditions: RAW 264.7 cells, compared to parent apocynin, cited from earlier work
[3] = Solubility in water (remark on dosing vehicle); type: physicochemical
Description: (§1) Male Sprague-Dawley rats, weighing 210–290 g, were fasted for 12 h but with free access to water before dosing. The rats were randomly divided into groups of intravenous AN-1, intravenous apocynin, intragastric AN-1 and intragastric apocynin. […] Apocynin was dissolved in a mixture of propylene glycol-saline (4∶6, v/v). The single-dose pharmacokinetic study was performed. For AN-1, three different doses (20, 40 and 80 mg/kg) were administered for intravenous study (n = 6–8) and one dose (40 mg/kg) was given for intragastric study (n = 6). For apocynin, 50 mg/kg, an equimolar dose to 80 mg/kg (0.302 mmol/kg) of AN-1, was administered for both intravenous (n = 8) and intragastric studies (n = 6). A day before dosing, a cannula was introduced into jugular vein on rats for intravenous dosing and blood sampling in all groups.

[4] = Stability of analytes in rat plasma under different storage conditions; type: in vitro ADME; conditions: for Accuracy, post-preparative stability: post-preparative QC samples; for Accuracy, post-preparative stability / Accuracy, short-term stability / Accuracy, freeze-thaw stability / Accuracy, long-term stability: n = 5; for time post-preparative solutions stable: room temperature; for Accuracy in stability test (summary) / Accuracy, short-term stability / Accuracy, freeze-thaw stability / Accuracy, long-term stability: rat plasma; for Accuracy in stability test (summary): long-term −20°C, short-term room temperature and three freeze-thaw cycles; for Accuracy, freeze-thaw stability: three freeze-thaw cycles; for Accuracy, long-term stability: −20°C for 30 days
Description: The stability of analytes in rat plasma stored under different conditions was assessed at low, medium and high QC concentrations, respectively. The conditions included long-term storage at −20°C for 30 days, short-term storage at room temperature (8 h for AN-1, 24 h for apocynin), three freeze-thaw cycles treatment, and post-preparative QC samples stored at room temperature (8 h for AN-1, 24 h for apocynin). The concentrations measured from the above samples were compared with the nominal values of QC plasma samples. Samples were concluded stable and applicable to routine analysis if the deviation of the observed concentration was less than ±15% from the nominal value.

[5] = Single-dose pharmacokinetic study (intravenous and intragastric) with HPLC-UV plasma assay, non-compartmental analysis; type: in vivo, Sprague-Dawley rats; conditions: rat; for half-life / bioavailability / Cmax / Tmax / MRT last / clearance: male, Sprague-Dawley, plasma; for bioavailability: oral, read-out: F (absolute oral bioavailability); for MRT last: read-out: MRT0–t (converted)
Description: as §1
Blood samples (0.4 mL) was collected via jugular vein into heparinized tubes at 0 min (before dosing) and 5, 10, 15, 30, 45, 60, 90, 120, 180, 240, 360, 480, 600, 720, 840 min for AN-1 and at 0 min (before dosing) and 2, 4, 6, 10, 15, 20, 30, 40, 50, 60 min for apocynin after intravenous and intragastric dosing. An equal volume of heparinized saline was used to flush the catheter immediately after each blood withdrawal to prevent blood clotting. The blood samples were centrifuged immediately at 10,000 rpm for 5 min at 4°C, and then the plasma was transferred and stored at −20°C until analysis.
The profiles of analyte concentrations in rat plasma versus time were analyzed to calculate pharmacokinetic parameters by a non-compartmental model using DAS software (version 3.0.1, Chinese Mathematical Pharmacology Society).

[6] = test system: gp91^phox subunit of NADPH-oxidase; set-up: method as in earlier work; conditions: RAW 264.7 macrophage cells; cited from earlier work
[7] = room temperature 8 h, 0.2 µg/mL
[8] = room temperature 8 h, 250 µg/mL
[9] = room temperature 8 h, 400 µg/mL
[10] = intravenous and oral (intragastric), range over all intravenous and intragastric dose groups, read-out: terminal elimination half-life
[11] = po, intragastric, 40 mg/kg, n = 6
[12] = room temperature 24 h, 0.4 µg/mL
[13] = room temperature 24 h, 40 µg/mL
[14] = room temperature 24 h, 80 µg/mL
[15] = po, intragastric, 50 mg/kg, n = 6

COc1cc(C(C)=O)cc(/C=[N+](\[O-])C(C)(C)C)c1O [AN-1, (Z)-N-(5-Acetyl-2-hydroxy-3-methoxybenzylidene)-2-methylpropan-2-amine oxide]
activity of superoxide dismutase in the lung of model rats [1]: significantly increased | treatment effect for the lung injury of model rats [1]: greater treatment effect than apocynin | protection against t-BHP inducing oxidative cytotoxicity [2]: protected | ROS production ([2]; t-BHP): attenuated the ROS production markedly | solubility in water [3]: poor solubility in water | Accuracy, post-preparative stability [4, 7]: 88.61±0.58% | Accuracy, post-preparative stability [4, 8]: 88.14±0.84% | Accuracy, post-preparative stability [4, 9]: 91.96±1.51% | time post-preparative solutions stable [4]: at least 8 h | Accuracy in stability test (summary) [4]: higher than 90% | Accuracy, short-term stability [4, 7]: 89.96±0.31% | Accuracy, short-term stability [4, 8]: 91.99±1.37% | Accuracy, short-term stability [4, 9]: 91.46±0.96% | Accuracy, freeze-thaw stability ([4]; 0.2 µg/mL): 94.79±0.46% | Accuracy, freeze-thaw stability ([4]; 250 µg/mL): 95.56±0.95% | Accuracy, freeze-thaw stability ([4]; 400 µg/mL): 96.33±0.98% | Accuracy, long-term stability ([4]; 0.2 µg/mL): 92.98±1.91% | Accuracy, long-term stability ([4]; 250 µg/mL): 94.74±2.43% | Accuracy, long-term stability ([4]; 400 µg/mL): 91.92±0.86% | half-life [5, 10]: 2.71 to 3.35 h | bioavailability ([5]; intragastric 40 mg/kg vs intravenous 40 mg/kg): 78% | Cmax [5, 11]: 80 ± 20 µM | Tmax [5, 11]: 0.43 h | MRT last [5, 11]: 4.85 h | half-life ([5]; po, intragastric, 40 mg/kg, n = 6, read-out: T1/2): 3.35 ± 1.62 h | clearance ([5]; intravenous, 20 mg/kg, n = 8): 5 ± 1 mL/min/kg | MRT last ([5]; intravenous, 20 mg/kg, n = 8): 2.94 h | half-life ([5]; intravenous, 20 mg/kg, n = 8, read-out: T1/2): 2.86 ± 1.33 h | clearance ([5]; intravenous, 40 mg/kg, n = 6): 6 ± 1 mL/min/kg | MRT last ([5]; intravenous, 40 mg/kg, n = 6): 3.22 h | half-life ([5]; intravenous, 40 mg/kg, n = 6, read-out: T1/2): 2.71 ± 0.938 h | half-life ([5]; intravenous, 80 mg/kg (0.302 mmol/kg), n = 8, read-out: T1/2): 3 ± 0.748 h | clearance ([5]; intravenous, 80 mg/kg, n = 8): 5 ± 1 mL/min/kg | MRT last ([5]; intravenous, 80 mg/kg, n = 8): 3.42 h | exposure in the systemic circulation (AUC0–t) relative to apocynin ([5]; equimolar intravenous dose 0.302 mmol/kg): 25 fold | AUC0–t ([5]; intragastric, 40 mg/kg, n = 6): 20.68 ± 3.95 mmol·min/L | CL ([5]; intragastric, 40 mg/kg, n = 6): 7 ± 1 mL/min/kg | V ([5]; intragastric, 40 mg/kg, n = 6): 1.95 ± 0.90 L/kg | AUC0–t ([5]; intravenous, 20 mg/kg, n = 8): 14.88 ± 1.31 mmol·min/L | V ([5]; intravenous, 20 mg/kg, n = 8): 1.20 ± 0.54 L/kg | AUC0–t ([5]; intravenous, 40 mg/kg, n = 6): 26.51 ± 5.12 mmol·min/L | V ([5]; intravenous, 40 mg/kg, n = 6): 1.27 ± 0.32 L/kg | AUC0–t ([5]; intravenous, 80 mg/kg (0.302 mmol/kg), n = 8, 80 mg/kg): 61.89 mmol·min/L and 61.89 ± 7.59 mmol·min/L | V ([5]; intravenous, 80 mg/kg, n = 8): 1.20 ± 0.32 L/kg | expression of gp91^phox induced by t-BHP [6]: depressing the high expression

COc1cc(C(C)=O)ccc1O [Apocynin, 4-hydroxy-3-methoxyacetophenone]
Accuracy, post-preparative stability [4, 12]: 98.34±6.26% | Accuracy, post-preparative stability [4, 13]: 94.57±0.60% | Accuracy, post-preparative stability [4, 14]: 92.51±1.43% | time post-preparative solutions stable [4]: at least 8 h | Accuracy in stability test (summary) [4]: higher than 90% | Accuracy, short-term stability [4, 12]: 102.47±6.10% | Accuracy, short-term stability [4, 13]: 95.52±1.01% | Accuracy, short-term stability [4, 14]: 94.11±1.35% | Accuracy, freeze-thaw stability ([4]; 0.4 µg/mL): 102.87±1.62% | Accuracy, freeze-thaw stability ([4]; 40 µg/mL): 95.48±0.69% | Accuracy, freeze-thaw stability ([4]; 80 µg/mL): 93.60±1.79% | Accuracy, long-term stability ([4]; 0.4 µg/mL): 102.17±0.87% | Accuracy, long-term stability ([4]; 40 µg/mL): 95.18±0.34% | Accuracy, long-term stability ([4]; 80 µg/mL): 94.09±0.99% | half-life [5, 10]: 0.0983 to 0.102 h | bioavailability ([5]; intragastric 50 mg/kg vs intravenous 50 mg/kg): 2.8% | Cmax [5, 15]: 8 ± 2 µM | Tmax [5, 15]: 0.0883 h | MRT last [5, 15]: 0.135 h | half-life ([5]; po, intragastric, 50 mg/kg, n = 6, read-out: T1/2): 0.0983 ± 0.03 h | half-life ([5]; intravenous, 50 mg/kg (0.302 mmol/kg), n = 8, read-out: T1/2): 0.102 ± 0.015 h | clearance ([5]; intravenous, 50 mg/kg, n = 8): 120 ± 20 mL/min/kg | MRT last ([5]; intravenous, 50 mg/kg, n = 8): 0.117 h | AUC0–t ([5]; intragastric, 50 mg/kg, n = 6): 0.07 ± 0.01 mmol·min/L | CL ([5]; intragastric, 50 mg/kg, n = 6): 3670 ± 350 mL/min/kg | V ([5]; intragastric, 50 mg/kg, n = 6): 31.46 ± 12.14 L/kg | AUC0–t ([5]; intravenous, 50 mg/kg (0.302 mmol/kg), n = 8, 50 mg/kg): 2.49 ± 0.46 mmol·min/L | AUC0–t ([5]; intravenous, 50 mg/kg (0.302 mmol/kg), n = 8, listed as apocynin, 50 mg/kg): 2.49 mmol·min/L | V ([5]; intravenous, 50 mg/kg, n = 8): 1.09 ± 0.30 L/kg
